Measurements taken from patent US20070243577A1, “Method for the detection of apoptosis by determining apoptosis-specific markers released into an extracellular medium through cellular release mechanisms” (Evotec OAI AG, priority 2000, published 2007).

Experiments:
Jurkat cells [1] = assay: Extracellular release of cytochrome c into cell culture medium (immunoprecipitation and immunoblot); format: cell-based, human; conditions: for cytochrome c in the cell culture medium: 16 h, anti-CD95 mAb 1 μg/ml, etoposide 25 μg/ml, doxorubicin 2 μg/ml
Method: 5×10^6 Jurkat cells were cultured in growth medium and either left untreated (control) or stimulated for 16 h with staurosporine (stauro, 2.5 μM), anti-CD95 mAb (α-CD95, 1 μg/ml), etoposide (etopo, 25 μg/ml) or doxorubicin (doxo, 2 μg/ml). Cytochrome c was precipitated from the cell culture medium (m) and the cellular extracts (c) with antibodies against the native molecule. The immunoprecipitated material was separated by SDS-PAGE and analysed by immunoblotting.
5×10^6 Jurkat cells were cultured in growth medium and stimulated for 15 h with the indicated concentrations of anti-CD95 mAb and staurosporine or for 24 h with the indicated concentrations of etoposide or doxorubicin. Cytochrome c was precipitated from the culture medium (m) and the cellular extracts (c) with antibodies against the native molecule. The immunoprecipitated material was separated by SDS-PAGE and analysed by immunoblotting. The quantity of cytochrome c was determined by densitometric analysis. The graphs display the amount of cytochrome c in the culture medium relative to the total amount of cytochrome c present in medium and cells.
1×10^6 Jurkat cells were incubated with medium or staurosporine (stauro, 2.5 μM) and harvested after is the indicated time points (+). A cell culture sample prior to applying staurosporine and a cell culture sample after 15 h without the addition of staurosporine are shown for intercomparison (−). Release of cytochrome c was determined by immunoprecipitation of the medium fractions and subsequent immunoblotting. […] The amounts of cytochrome c in the supernatants indicate the absolute densitometric values.
The human Jurkat T-cell line and mouse L929 fibroblasts were grown at 37° C., 5% CO2, in RPMI-1640 medium supplemented with 10% heat-inactivated fetal calf serum, penicillin and streptomycin (all from GIBCO BRL). Etoposide, actinomycin D and doxorubicin were purchased from Sigma and staurosporine from Roche Diagnostics. All stimuli were dissolved in ethanol and kept at −70° C.

Jurkat cells [2] = assay: Measurement of cell death by flow cytometry (hypodiploid nuclei, PI uptake); format: cell-based, human
Method: The percentage of apoptotic hypodiploid cells is shown on the right of the histograms. […] 1×10^6 Jurkat cells were incubated with medium or staurosporine (stauro, 2.5 μM) and harvested after the indicated time points.
Also shown is the detection of cell death by PI (propidium iodide) uptake and of apoptosis by detecting hypodiploid nuclei, both by flow cytometry. The percentage of dead cells or apoptotic hypodiploid cells is shown on the right of the histograms. 1×10^6 cells were cultured in normal growth medium (control), or in the presence of staurbsporine (stauro, 2.5 μM) or the indicated concentrations of H2O2 for 18 h. […] As also shown, cell death was detected by PI (propidium iodide) uptake and apoptosis by detecting hypodiploid nuclei, both by flow cytometry.

Jurkat cells [3] = assay: LDH activity in the supernatant; format: cell-based, human; conditions: staurosporine 2.5 μM, 15 hours
Method: 1×10^6 Jurkat cells were incubated with medium or staurosporine (stauro, 2.5 μM) and harvested after is the indicated time points (+). A cell culture sample prior to applying staurosporine and a cell culture sample after 15 h without the addition of staurosporine are shown for intercomparison (−). Release of cytochrome c was determined by immunoprecipitation of the medium fractions and subsequent immunoblotting. Heavy; and light chain of anti-cytochrome c antibody and cytochrome c are indicated by open and closed arrowheads, respectively. The LDH activity in the supernatant of apoptotic cells represents the percentage of total LDH activity in the sample. The amounts of cytochrome c in the supernatants indicate the absolute densitometric values. The release of cytochrome c from the cell is a rapid process. Already one hour after apoptosis induction with staurosporine cytochrome c could be detected in the extracellular medium. […] Only about 20% of the total LDH were detected in the supernatants of apoptotic cells after 15 hours of staurosporine treatment.
Cell viability was also determined by monitoring the release of the cytoplasmic enzyme lactate dehydrogenase (LDH), an indicator for cell death. In order to obtain total LDH activity, cells were lysed with 1% Triton X-100. […]

L929 cells [4] = assay: Extracellular release of cytochrome c into cell culture medium (immunoprecipitation and immunoblot); format: cell-based, mouse; conditions: TNF-α 10 ng/ml plus actinomycin D 1 μg/ml in presence of zVAD-fmk 100 μM, 8 h
Method: 3×10^6 L929 cells were incubated with medium or with TNF-α (10 ng/ml) plus actinomycin D (Act. D, 1 μg/ml) in the absence or presence of the caspase inhibitor zVAD-fmk (benzyloxycarbonyl-Val-Ala-Asp-fluoromethylketone, zVAD, 100 μM) for 8 h. The release of cytochrome c was determined by immunoprecipitation of culture medium (m) and for intercomparison of corresponding cellular extracts (c) and subsequent immunoblotting. Heavy and light chain of the anti-cytochrome c antibody and cytochrome c are indicated by open and closed arrowheads, respectively.
The human Jurkat T-cell line and mouse L929 fibroblasts were grown at 37° C., 5% CO2, in RPMI-1640 medium supplemented with 10% heat-inactivated fetal calf serum, penicillin and streptomycin (all from GIBCO BRL). […] The broad-range caspase inhibitor benzyloxycarbonyl-Val-Ala-Asp-fluoromethylketone (zVAD-fmk) was purchased from Enzyme Systems (Dublin, Calif.); all other chemicals were from Merck KG or Roth GmbH.
To determine the cellular cytochrome c content, cells were collected by centrifugation, washed in cold PBS and extracted in cold lysis buffer (50 mM Tris, pH 7.4, 150 mM NaCl, 1% Triton-X100 containing 3 μg/ml aprotinin, 3 μg/ml leupeptin, 3 μg/ml pepstatin and 2 mM PMSF). […] The amount of immunoprecipitated cytochrome c was determined by densitometric analysis using the NIH image software (National Institutes of Health).

L929 cells [5] = assay: Measurement of cell death by flow cytometry (hypodiploid nuclei, PI uptake); format: cell-based, mouse; conditions: TNF-α 10 ng/ml plus actinomycin D 1 μg/ml in presence of zVAD-fmk 100 μM, 8 h
Method: Also shown is the detection of cell death by PI (propidium iodide) uptake and of apoptosis by detecting hypodiploid nuclei, both by flow cytometry. The percentage of dead cells or apoptotic hypodiploid cells is shown on the right of the histograms. 3×10^6 L929 cells were incubated with medium or with TNF-α (10 ng/ml) plus actinomycin D (Act. D, 1 μg/ml) in the absence or presence of the caspase inhibitor zVAD-fmk (benzyloxycarbonyl-Val-Ala-Asp-fluoromethylketone, zVAD, 100 μM) for 8 h. The release of cytochrome c was determined by immunoprecipitation of culture medium (m) and for intercomparison of corresponding cellular extracts (c) and subsequent immunoblotting. […] As also shown, cell death was detected by PI (propidium iodide) uptake and apoptosis by detecting hypodiploid nuclei, both by flow cytometry. […]
For determination of apoptosis, Jurkat and L929 cells were seeded in microtiter plates and treated with the cytotoxic agents for the indicated time periods. […] Briefly, apoptotic nuclei were prepared by lysing cells in a hypotonic lysis buffer (1% sodium citrate, 0.1% Triton X-100, 50 μg/ml propidium iodide) and subsequently analysed by flow cytometry. In parallel, cell death as assessed by membrane damage was determined by the uptake of propidium iodide (PI, 2 μg/ml in PBS; Sigma) into non-fixed cells. […]

[6] = Jurkat cells, staurosporine 2.5 μM
[7] = Jurkat T-cells, 100 μM and 250 μM, 18 h

How did the “cytochrome c in the cell culture medium” value (Jurkat cells [1]; [6]) turn out when `COc1cccc2c1C(=O)c1c(O)c3c(c(O)c1C2=O)C[C@@](O)(C(=O)CO)C[C@@H]3O[C@H]1C[C@H](N)[C@H](O)[C@H](C)O1` [doxorubicin] was run?
The value was “large amounts of cytochrome c”.

How did the “cytochrome c in the cell culture medium” value (Jurkat cells [1]; [6]) turn out when `COc1cc([C@@H]2c3cc4c(cc3[C@@H](O[C@@H]3O[C@@H]5CO[C@@H](C)O[C@H]5[C@H](O)[C@H]3O)[C@H]3COC(=O)[C@H]23)OCO4)cc(OC)c1O` [etoposide] was run?
Its value is “large amounts of cytochrome c”.

Which “mode of cell death (PI uptake, hypodiploid nuclei)” value (Jurkat cells [2]; [7]) does the source give for `OO` [hydrogen peroxide] here?
Its value is “induced necrotic death”.

And the “cytochrome c release into the extracellular cell culture medium” value (Jurkat cells [1]; [7])?
Its value is “no cytochrome c release”.

`CN[C@@H]1C[C@H]2O[C@@](C)([C@@H]1OC)n1c3ccccc3c3c4c(c5c6ccccc6n2c5c31)C(=O)NC4` [staurosporine] was tested. Which “time until formation of hypodiploid nuclei after triggering apoptosis” value (Jurkat cells [2]; [6]) did it give?
Its value is at least 5 h.

What about the “cytochrome c in the cell culture medium” value (Jurkat cells [1]; [6]) of the same compound?
Its value is “large amounts of cytochrome c”.

What about the “time at which cytochrome c could be detected in the extracellular medium” value (Jurkat cells [1]; [6]) of the same compound?
The value was “one hour”.

What about the “LDH detected in the supernatants, percentage of total LDH” value (Jurkat cells [3]) of the same compound?
Its value is “about 20%”.

What does the source list for “benzyloxycarbonyl-Val-Ala-Asp-fluoromethylketone [zVAD-fmk]”?
extracellular cytochrome c release (L929 cells [4]): not during necrotic cell death; mode of cell death (hypodiploid nuclei, PI uptake) (L929 cells [5]): resulted in necrosis
